The target of assay [1] is T1, STAT3 (Homo sapiens, UniProt P40763). The assay can be described thus: Quantitation of STAT3 degradation in A549 cells by Western blot. Format: cell-based. More on the design: expressed in transfected cells; host or cells: A549. Conditions: read-out: A549 DC50, 24 hours, tested up to 30 μM or 10 μM. As for the experimental part:
Degradation of total cellular STAT3 protein in A549 was quantitatively measured using SDS-PAGE and Western blot analysis. A549 cells (5×10^5 cells/well, 2 mL) were seeded into 6-well plates and were incubated in the incubator under 5% CO2 overnight to reach ˜80% confluency. The next day, the culture medium was changed with 1 ml fresh media. Then, 1 mL of media containing 2× compound solution was added into the well to make the final concentration of 30 μM, 10 μM, 3 μM, 1 μM, 0.3 μM and 0 μM (DMSO). The media was thoroughly mixed and incubated for 24 hours at 37° C. under 5% CO2. Then, the culture media was removed from the assay plates and the cells were washed with ice-cold PBS twice. To prepare cell lysates, 200 ul pre-chilled RIPA lysis buffer (Boston BioProducts BP-115D) with protease/phosphatase inhibitor (Roche 05892791001/Roche 04906837001) was added directly into the well to lyse the cells for 20 minutes on ice. The cell lysates were then transferred to centrifuge tubes. Insoluble part of lysates was removed by centrifuging the lysates at 13000 rpm for 20 minutes. The supernatant was then collected and mixed with 5× loading buffer (Beyotime Bio P0015) to make the final samples for SDS-PAGE analysis. The samples were heated at 100° C. for 10 minutes and cool to room temperature before centrifuging at 13000 rpm for 20 minutes. To analyze the samples by SDS-PAGE, 10 ul samples were loaded onto SDS-PAGE gel (Novex, WG1403BOX) and the SDS-PAGE gel was run for 20 minutes at 80 V, then at 120 V for 1.5 hours. The SDS-PAGE gel was then transferred to nitrocellulose membrane using the wet-transfer method at 250 mA for 1.5 hours. The membrane was then blocked with LI-COR blocking buffer (LI-COR, 927-50000) for 1 hour and was probed with primary antibody (mouse anti-STAT3 (124H6) (CST #91395) 1:2000 or mouse anti-beta-Actin (8H10D10) (CST #3700) 1:10000) at 4° C. overnight. The membrane was then washed three times with TBST buffer and probed with secondary antibody (anti-mouse IgG (LI-COR, 926-68070), 1:5000) for 1 hour at room temperature. The membrane was then scanned on a LI-COR Odyssey instrument and was quantified using Image Studio Version 5.2. Concentration at 50% degradation (DC50) was calculated by fitting dose dependent degradation data using a sigmoidal equation using GraphPad Prism Version 8.0.
A general note: Immunoblotting shows a protein as a band on a membrane.

In assay [2] the target is T1, STAT3. The assay can be described thus: STAT3 HiBiT degradation assay in transfected A549 cells. The format is cell-based. More on the design: expressed in transfected cells; host or cells: A549. To be noted: A549, 24 h; read-out: STAT3 HiBiT A549 degradation 24 h: Average external-Abs DC50. The procedure, abridged:
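Degradation read as HiBiT-tagged STAT3 luminescence (Nano-Glo lytic reagent, 10 min, room temperature) following 24 h compound treatment of transfected A549 cells at 3-fold, 10 points. Percent remaining signal computed against controls and fitted with a four-parameter logistic; DC50 reported as letter bins (A <0.01 to D >1.0 µM).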
Background: HiBiT is a short tag that completes a luciferase, so light tracks the accessible tagged protein.

The source of these data is patent US12077555B2, “STAT degraders and uses thereof” (Kymera Therapeutics, Inc., priority 2019, dated 2024).

SMILES strings stand for the structures. Some results are limits rather than exact numbers.

T1 sequence (P40763 whole entry): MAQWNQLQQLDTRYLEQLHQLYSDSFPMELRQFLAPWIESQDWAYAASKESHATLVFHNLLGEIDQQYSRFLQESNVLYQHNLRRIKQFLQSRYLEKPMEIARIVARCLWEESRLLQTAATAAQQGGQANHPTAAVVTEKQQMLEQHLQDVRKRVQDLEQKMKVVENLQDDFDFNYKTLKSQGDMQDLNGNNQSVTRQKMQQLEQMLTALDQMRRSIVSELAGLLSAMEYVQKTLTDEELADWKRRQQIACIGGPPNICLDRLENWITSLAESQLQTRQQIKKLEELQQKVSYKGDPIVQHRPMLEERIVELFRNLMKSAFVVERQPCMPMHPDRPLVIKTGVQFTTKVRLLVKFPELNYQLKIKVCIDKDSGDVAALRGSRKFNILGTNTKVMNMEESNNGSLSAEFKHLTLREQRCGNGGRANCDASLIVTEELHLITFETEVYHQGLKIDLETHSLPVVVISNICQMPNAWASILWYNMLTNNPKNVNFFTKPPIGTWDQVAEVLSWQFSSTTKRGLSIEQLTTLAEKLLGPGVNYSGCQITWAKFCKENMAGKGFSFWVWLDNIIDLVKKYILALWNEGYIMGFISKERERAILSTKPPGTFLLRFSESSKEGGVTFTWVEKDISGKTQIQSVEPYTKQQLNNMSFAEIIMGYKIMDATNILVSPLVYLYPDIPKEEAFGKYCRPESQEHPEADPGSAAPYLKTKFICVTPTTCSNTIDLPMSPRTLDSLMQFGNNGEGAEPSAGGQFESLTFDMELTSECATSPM

One may read the DC50 as the concentration at which degradation of the target reaches its halfway point. Regarding `C/C(=C\C(=O)N[C@H]1CCc2cccc3c2N(C1=O)[C@H](C(=O)N[C@@H](CCC(N)=O)[C@@H](C)OCc1ccc(CCCCOCC(=O)N[C@H](C(=O)N2C[C@@H](O)C[C@H]2C(=O)NCc2ccc(-c4scnc4C)cc2)C(C)(C)C)cc1)C3)c1ccc(C(F)(F)P(=O)(OCOC(=O)C(C)(C)C)OCOC(=O)C(C)(C)C)cc1` [Compound I-21], the DC50 on STAT3 [1] is more than 30000 nM.
Regarding `Cc1ncsc1-c1ccc(CNC(=O)C2C[C@@H](O)CN2C(=O)[C@@H](NC(=O)CCCc2ccc(CO[C@H](C)[C@H](CCC(N)=O)NC(=O)[C@@H]3Cc4cccc5c4N3C(=O)[C@@H](NC(=O)c3cc4cc(C(=O)P(=O)(O)O)ccc4[nH]3)CC5)cc2)C(C)(C)C)cc1` (some centres unmarked) [Compound I-101], the DC50 at STAT3 [1] was less than 30000 nM.
As to `Cc1ncsc1-c1ccc(CNC(=O)[C@@H]2C[C@@H](O)CN2C(=O)[C@@H](NC(=O)CCCc2cccc3cc(CO[C@H](C)[C@H](CCC(N)=O)NC(=O)[C@@H]4Cc5cccc6c5N4C(=O)[C@@H](NC(=O)c4cc5cc(C(=O)P(=O)(O)O)ccc5[nH]4)CC6)ccc23)C(C)(C)C)cc1` [Compound I-133, diammonium 2-[[(2S,11S)-2-[[(3S,4R)-1-carbamoyl-4-[[5-(3-[[(2S)-1-[(2S,4R)-4-hydroxy-2-([[4-(4-methyl-1,3-thiazol-5-yl)phenyl]methyl]carbamoyl)pyrrolidin-1-yl]-3,3-dimethyl-1-oxobutan-2-yl]carbamoyl]propyl)naphthalen-2-yl]methoxy]pentan-3-yl]carbamoyl]-12-oxo-1-azatricyclo[6.4.1.0^[4,13]]trideca-4(13),5,7-trien-11-yl]carbamoyl]-1H-indole-5-carbonylphosphonate], on STAT3 [2], the DC50 was in the range of 100 to 1000 nM.
Turning to `Cc1ncsc1-c1ccc(CNC(=O)[C@@H]2C[C@@H](O)CC2C(=O)[C@@H](NC(=O)CCc2ccc(CCCOC[C@H](CCC(N)=O)NC(=O)[C@@H]3Cc4cccc5c4N3C(=O)[C@@H](NC(=O)c3cc4cc(C(=O)P(=O)(O)O)ccc4[nH]3)CC5)cc2)C(C)(C)C)cc1` (stereo partly drawn) [Compound I-170, diammonium 2-[[(2S,11S)-2-[[(2S)-4-carbamoyl-1-[3-[4-(2-[[(2S)-1-[(2S,4R)-4-hydroxy-2-([[4-(4-methyl-1,3-thiazo1-5-yl)phenyl]methyl]carbamoyl)pyrrolidin-1-yl]-3,3-dimethyl-1-oxobutan-2-yl]carbamoyl]ethyl)phenyl]propoxy]butan-2-yl]carbamoyl]-12-oxo-1-azatricyclo[6.4.1.0^[4,13]]trideca-4(13),5,7-trien-11-yl]carbamoyl]-1H-indole-5-carbonylphosphonate], at STAT3 [2], the DC50 was more than 1000 nM.
In the case of `Cc1ncsc1-c1ccc([C@H](C)NC(=O)[C@@H]2C[C@@H](O)CN2C(=O)[C@@H](NC(=O)CCCCCc2cc(F)cc(OC[C@H](CCC(N)=O)NC(=O)[C@@H]3Cc4cccc5c4N3C(=O)[C@@H](NC(=O)c3cc4cc(C(=O)P(=O)(O)O)ccc4[nH]3)CC5)c2F)C(C)(C)C)cc1` [Compound I-267], the DC50 at STAT3 [2] is less than 10 nM.
Take `Cn1c(=O)n(C2CCC(=O)NC2=O)c2ccc(CCCCCc3cc4c5c(c3)C[C@@H](C(=O)N[C@@H](CCC(N)=O)C(=O)NC(c3ccccc3)c3ccccc3)N5C(=O)[C@@H](NC(=O)c3cc5cc(C(=O)P(=O)(O)O)ccc5[nH]3)CC4)cc21` (stereo partly drawn) [Compound I-198, 2-[[(2S,11S)-2-[[(1S)-3-carbamoyl-1-(diphenylmethylcarbamoyl)propyl]carbamoyl]-6-[5-[1-(2,6-dioxopiperidin-3-yl)-3-methyl-2-oxo-1,3-benzodiazol-5-yl]pentyl]-12-oxo-1-azatricyclo[6.4.1.0^[4,13]]trideca-4(13),5,7-trien-11-yl]carbamoyl]-1H-indole-5-carbonylphosphonic acid]: at STAT3 [2], the DC50 is 100 to 1000 nM.
For the compound `Cc1ncsc1-c1ccc(CNC(=O)[C@@H]2C[C@@H](O)CN2C(=O)[C@@H](NC(=O)NCCCc2ccc(CO[C@H](C)[C@H](CCC(N)=O)NC(=O)[C@@H]3Cc4cccc5c4N3C(=O)[C@@H](NC(=O)c3cc4cc(C(=O)P(=O)(O)O)ccc4[nH]3)CC5)cc2)C(C)(C)C)cc1` [Compound I-151, 2-[[(2S,11S)-2-[[(3S,4R)-1-carbamoyl-4-([4-[3-([[(2S)-1-[(2S,4R)-4-hydroxy-2-([[4-(4-methyl-1,3-thiazol-5-yl)phenyl]methyl]carbamoyl)pyrrolidin-1-yl]-3,3-dimethyl-1-oxobutan-2-yl]carbamoyl]amino)propyl]phenyl]methoxy)pentan-3-yl]carbamoyl]-12-oxo-1-azatricyclo[6.4.1.0^[4,13]]trideca-4(13),5,7-trien-11-yl]carbamoyl]-1H-indole-5-carbonylphosphonic acid], the DC50 on STAT3 [2] was in the range of 100 to 1000 nM.
Take `Cc1ncsc1-c1ccc([C@H](C)NC(=O)[C@@H]2C[C@@H](O)CN2C(=O)[C@@H](NC(=O)OCCCCc2cccc(OC[C@H](CCC(N)=O)NC(=O)[C@@H]3Cc4cccc5c4N3C(=O)[C@@H](NC(=O)c3cc4cc(C(=O)P(=O)(O)O)ccc4[nH]3)CC5)c2F)C(C)(C)C)cc1` [Compound I-281]: on STAT3 [2], the DC50 is less than 10 nM.
Take `Cc1ncsc1-c1ccc(CNC(=O)[C@@H]2C[C@@H](O)CN2C(=O)[C@@H](NC(=O)CCc2cccc3cc(CO[C@H](C)[C@H](CCC(N)=O)NC(=O)[C@@H]4Cc5cccc6c5N4C(=O)[C@@H](NC(=O)c4cc5cc(C(=O)P(=O)(O)O)ccc5[nH]4)CC6)ccc23)C(C)(C)C)cc1` [Compound I-136, diammonium 2-[[(2S,11S)-2-[[(3S,4R)-1-carbamoyl-4-[[5-(2-[[(2S)-1-[(2S,4R)-4-hydroxy-2-([[4-(4-methyl-1,3-thiazol-5-yl)phenyl]methyl]carbamoyl)pyrrolidin-1-yl]-3,3-dimethyl-1-oxobutan-2-yl]carbamoyl]ethyl)naphthalen-2-yl]methoxy]pentan-3-yl]carbamoyl]-12-oxo-1-azatricyclo[6.4.1.0^[4,13]]trideca-4(13),5,7-trien-11-yl]carbamoyl]-1H-indole-5-carbonylphosphonate]: on STAT3 [2], the DC50 was more than 1000 nM.
The same measure, in the same setting: to `C/C(=C\C(=O)N[C@H]1CN(C(=O)CCCCCCc2ccc3c(c2)n(C)c(=O)n3C2CCC(=O)NC2=O)CC[C@H]2CC[C@@H](C(=O)N[C@@H](CCC(N)=O)C(=O)NC(c3ccccc3)c3ccccc3)N2C1=O)c1cccc(C(F)(F)P(=O)(O)O)c1` (stereo partly drawn) [Compound I-143, [3-[(1E)-1-[[(8S,10aR)-8-[[(1S)-3-carbamoyl-1-(diphenylmethylcarbamoyl)propyl]carbamoyl]-3-[7-[1-(2,6-dioxopiperidin-3-yl)-3-methyl-2-oxo-1,3-benzodiazol-5-yl]heptanoyl]-6-oxo-octahydropyrrolo[1,2-a][1,5]diazocin-5-yl]carbamoyl]prop-1-en-2-yl]phenyl]difluoromethylphosphonic acid] belongs more than 1000 nM.
With `Cc1ncsc1-c1ccc([C@H](C)NC(=O)[C@@H]2C[C@@H](O)CN2C(=O)[C@@H](NC(=O)CCCCCc2cccc(NC[C@H](CCC(N)=O)NC(=O)[C@@H]3Cc4cccc5c4N3C(=O)[C@@H](NC(=O)c3cc4cc(C(=O)P(=O)(O)O)ccc4[nH]3)CC5)c2F)C(C)(C)C)cc1` [Compound I-265, diammonium 2-[[(2S,11S)-2-[(4-carbamoyl-1-[[2-fluoro-3-(5-[[(2S)-1-[(2S,4R)-4-hydroxy-2-[[(1S)-1-[4-(4-methyl-1,3-thiazol-5-yl)phenyl]ethyl]carbamoyl]pyrrolidin-1-yl]-3,3-dimethyl-1-oxobutan-2-yl]carbamoyl]pentyl)phenyl]amino]butan-2-yl)carbamoyl]-12-oxo-1-azatricyclo[6.4.1.0^[4,13]]trideca-4(13),5,7-trien-11-yl]carbamoyl]-1H-indole-5-carbonylphosphonate], the DC50 on STAT3 [2] was in the range of 10 to 100 nM.
